≈ marks a conversion by molar mass, not a printed value.
Molecular target: T1, Human C5 (Homo sapiens, UniProt P01031)
T1 construct: purchased Complement Technology
Assay: Red blood cell (RBC) hemolysis assay, luminescent (Example 13, Table 22); further: 1.5% C5-depleted human serum
Type: cell-based
Settings: sheep EA cells, […] C5-depleted human serum, 0.5 nM human C5, 1 hour 37° C., luminescence
Source text: Compound CU0136 is a racemic mixture of Compound CU0186 and CU0187. Numbers in parenthesis following compound numbers indicate alternate enantiomers (as distinguished by retention time during chromatographical separation).

T1 sequence (P01031 19-1676): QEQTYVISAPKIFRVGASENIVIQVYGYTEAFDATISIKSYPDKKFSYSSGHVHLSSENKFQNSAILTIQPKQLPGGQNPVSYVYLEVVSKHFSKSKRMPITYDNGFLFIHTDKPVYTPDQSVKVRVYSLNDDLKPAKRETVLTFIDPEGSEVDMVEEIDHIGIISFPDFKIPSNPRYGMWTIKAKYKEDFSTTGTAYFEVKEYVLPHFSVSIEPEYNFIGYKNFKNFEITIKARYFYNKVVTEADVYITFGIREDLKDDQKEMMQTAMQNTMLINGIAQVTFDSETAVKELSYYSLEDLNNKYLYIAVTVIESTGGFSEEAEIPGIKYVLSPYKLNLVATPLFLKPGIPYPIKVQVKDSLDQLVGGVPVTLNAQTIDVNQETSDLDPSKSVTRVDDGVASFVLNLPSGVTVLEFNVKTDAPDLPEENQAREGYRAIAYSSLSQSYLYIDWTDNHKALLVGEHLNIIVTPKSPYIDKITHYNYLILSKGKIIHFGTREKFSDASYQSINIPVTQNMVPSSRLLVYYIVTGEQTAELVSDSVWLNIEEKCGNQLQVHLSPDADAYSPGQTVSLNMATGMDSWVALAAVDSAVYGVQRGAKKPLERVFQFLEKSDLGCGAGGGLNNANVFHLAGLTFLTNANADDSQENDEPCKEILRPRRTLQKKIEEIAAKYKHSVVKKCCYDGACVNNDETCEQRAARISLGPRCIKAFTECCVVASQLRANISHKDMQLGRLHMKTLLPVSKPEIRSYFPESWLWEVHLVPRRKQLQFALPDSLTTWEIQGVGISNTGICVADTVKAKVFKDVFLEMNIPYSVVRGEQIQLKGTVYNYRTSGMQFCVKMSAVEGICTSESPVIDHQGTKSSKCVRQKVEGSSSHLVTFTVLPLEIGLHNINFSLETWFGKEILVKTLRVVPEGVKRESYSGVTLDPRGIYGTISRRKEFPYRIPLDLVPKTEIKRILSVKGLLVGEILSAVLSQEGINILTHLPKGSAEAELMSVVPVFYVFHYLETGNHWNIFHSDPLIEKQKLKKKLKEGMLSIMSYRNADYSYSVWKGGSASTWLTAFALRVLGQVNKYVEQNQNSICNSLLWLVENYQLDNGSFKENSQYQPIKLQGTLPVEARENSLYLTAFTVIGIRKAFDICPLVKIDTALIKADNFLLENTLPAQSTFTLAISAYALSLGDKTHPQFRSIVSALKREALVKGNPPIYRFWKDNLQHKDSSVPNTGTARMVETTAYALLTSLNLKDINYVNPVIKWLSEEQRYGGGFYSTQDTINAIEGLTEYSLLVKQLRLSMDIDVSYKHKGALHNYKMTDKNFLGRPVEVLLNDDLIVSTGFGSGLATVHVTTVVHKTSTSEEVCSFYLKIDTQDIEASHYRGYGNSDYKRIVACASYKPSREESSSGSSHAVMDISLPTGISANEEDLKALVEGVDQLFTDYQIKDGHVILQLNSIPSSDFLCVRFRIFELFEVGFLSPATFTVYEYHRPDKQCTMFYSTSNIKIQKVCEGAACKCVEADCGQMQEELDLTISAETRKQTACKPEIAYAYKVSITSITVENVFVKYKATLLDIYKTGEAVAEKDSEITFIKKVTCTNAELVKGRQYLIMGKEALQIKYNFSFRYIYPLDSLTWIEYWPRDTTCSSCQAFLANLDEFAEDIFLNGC

SMILES | IC50 [nM]
COc1ccc(F)cc1CN1CCCN(c2ccc(OC)c(OCC3CC4(CCC4)C3)c2)C1=O [CU0198] | 70.1
COc1cc(CC(=O)N(C)C)ccc1CN1CCCN(c2ccc(OC)c(OCc3ccccc3)c2)C1=O [CU0199] | 370
CCCCCOc1cc(N2CCCN(Cc3ccc(C(O)c4nccn4C)cc3OC)C2=O)ccc1OC (centres unmarked) [CU0200] | 8.9
CCCCCOc1cc(N2CCCN(Cc3ccc(CNC(=O)OC4CC4)cc3OC)C2=O)ccc1OC [CU0202] | 10.8
CCCCCOc1cc(N2CCCN(Cc3ccc(CCOC(C)C)cc3OC)C2=O)ccc1OC [CU0203] | 30
CCCCCOc1cc(N2CCCN(Cc3ccc(CCOC(=O)N(C)C)cc3OC)C2=O)ccc1OC [CU0204] | 21.6
COc1ccc(F)cc1CN1CCCN(c2ccc(OC)c(OCCC[C@H]3C[C@@H]3C)c2)C1=O [CU0205] | 5.1
COc1ccc(F)cc1CN1CCCN(c2ccc(OC)c(OCCC[C@H]3C[C@H]3C)c2)C1=O [CU0206] | 11.9
CCCCCOc1cc(N2CCCN(Cc3ccc(Cc4ncco4)cc3OC)C2=O)ccc1OC [CU0208] | 59.1
CCCCCOc1cc(N2CCCN(Cc3ccc(Cc4nnn[nH]4)cc3OC)C2=O)ccc1OC [CU0209] | 55.2
CCCCCOc1cc(N2CCCN(Cc3ccc(CC#N)cc3OC)C2=O)ccc1OC [CU0210] | 32.9
COc1ccc(F)cc1CN1CCCN(c2ccc(OC)c(OCCc3ccccc3C)c2)C1=O [CU0215] | 34.1
COc1ccc(F)cc1CN1CCCN(c2ccc(OC)c(OCCC3CCCCC3)c2)C1=O [CU0216] | 27
COc1ccc(F)cc1CN1CCCN(c2ccc(OC)c(OCCCC(C)C)c2)C1=O [CU0217] | 18.3
COc1ccc(F)cc1CN1CCCN(c2ccc(OC)c(OCCc3ccc(C)cc3)c2)C1=O [CU0219] | 221
COc1ccc(F)cc1CN1CCCN(c2ccc(OC)c(OCCc3cccc(C(F)(F)F)c3)c2)C1=O [CU0220] | 254
COc1ccc(F)cc1CN1CCCN(c2ccc(OC)c(OCc3cccc(OC(F)(F)F)c3)c2)C1=O [CU0221] | 741
COc1ccc(F)cc1CN1CCCN(c2ccc(OC)c(OCCCC3CCCCC3)c2)C1=O [CU0222] | 69.9
COc1ccc(F)cc1CN1CCCN(c2ccc(OC)c(OCc3cccc(C(F)(F)F)c3)c2)C1=O [CU0223] | 400
C/C=C\CCCOc1cc(N2CCCN(Cc3cc(F)ccc3OC)C2=O)ccc1OC [CU0225] | 29.1

SMILES | IC50 [nM]
COc1cccc(COc2cc(N3CCCN(Cc4cc(F)ccc4OC)C3=O)ccc2OC)c1 [CU0227] | 362
CCCCCOc1cc(N2CCCN(Cc3ccnc4c3ccn4CC(=O)N3CCCOCC3)C2=O)ccc1OC [CU0228] | 21.8
CCCCCOc1cc(N2CCCN(Cc3ccc(C)c4c3ccn4CC(=O)N(C)C)C2=O)ccc1OC [CU0229] | 88.9
CCCCCOc1cc(N2CCCN(Cc3ccc(F)c4c3ccn4CC(=O)N(C)C)C2=O)ccc1OC [CU0230] | 60.5
CCCCCOc1cc(N2CCCN([C@@H](C)c3cccc4c3ccn4CC(=O)N(C)C)C2=O)ccc1OC [CU0233] | 4260
CCCCCOc1cc(N2CCCN(Cc3cc(C)cc4c3ccn4CC(=O)N(C)C)C2=O)ccc1OC [CU0236] | 203
CCCCCOc1cc(N2CCCN(Cc3cc(F)cc4c3ccn4CC(=O)N(C)C)C2=O)ccc1OC [CU0237] | 43.9
CCCCCOc1cc(N2CCCN(Cc3cccc4c3cc(C)n4CC(=O)N(C)C)C2=O)ccc1OC [CU0238] | 61
COc1ccc(N2CCCN(Cc3cccc4[nH]ccc34)C2=O)cc1OCCCC(C)(F)F [CU0240] | 42.2
CCCCCOc1cc(N2CCCN(Cc3cccc4c3ccn4C3CCN(C4CC4)C3=O)C2=O)ccc1OC (centres unmarked) [CU0241] | 10.7
CCCCCOc1cc(N2CCCN(Cc3cccc4c3ccn4CC(=O)N(C)C3CCN(CC)C3)C2=O)ccc1OC (centres unmarked) [CU0242] | 8.2
CCCCCOc1cc(N2CCCN(Cc3ccnc4c3ccn4CC3CCCO3)C2=O)ccc1OC (centres unmarked) [CU0248] | 101
CCCCCOc1cc(N2CCCN(Cc3ccnc4c3ccn4CCC3CCOCC3)C2=O)ccc1OC [CU0249] | 386
CCCCCOc1cc(N2CCCN(Cc3ccnc4c3ccn4CCN3CCOC3=O)C2=O)ccc1OC [CU0250] | 217
CCCCCOc1cc(N2CCCN(Cc3ccnc4c3ccn4CC3=NCCN3C)C2=O)ccc1OC [CU0251] | 34
COc1ccc(N2CCCN(Cc3ccnc4c3ccn4CC(=O)N(C)C)C2=O)cc1OCc1ccccc1 [CU0252] | 825
COc1ccc(N2CCCN(Cc3ccnc4c3ccn4CC(=O)N(C)C)C2=O)cc1OCC[C@@H]1C[C@@H]2CC[C@H]1C2 [CU0253] | 41.9
CCCCCOc1cc(N2CCCN(Cc3ccnc4c3ccn4CCN3CCCC3)C2=O)ccc1OC [CU0254] | 18.7
COc1ccc(N2CCCN(Cc3ccnc4c3ccn4CC(=O)N(C)C)C2=O)cc1OCCC1CCCC1 [CU0259] | 75
COc1ccc(N2CCCN(Cc3ccnc4c3ccn4CC(=O)N(C)C)C2=O)cc1OCCCC(C)(F)F [CU0262] | 34.6

System: not listed separately
Assay: Kinetic solubility in PBS pH 7.4, HPLC-UV (Example 21, Table 27)
Type: physicochemical
Settings: phosphate buffered saline, aqueous buffer, kinetic from dmso stock, 0.5 M PBS, shaken minimum 24 h at approximately 25° C., HPLC-UV 270 nm
Procedure: Compounds were analyzed for kinetic solubility values using a standard kinetic solubility assay format. First, test compounds were dissolved in DMSO (Aldrich Chemical Co., Milwaukee, Wis., USA) at a concentration of 0.010 mol/L and used to prepare standard calibrators in DMSO solution. 500.0 μM, 250.0 μM, 125.0 μM, 62.5 μM, 31.2 μM, and 15.6 μM standards were prepared in a Greiner UV-Star clear V-bottom 96-well plate (Greiner-Bio One, Germany) for generating a standard curve. Using Alfa Aesar's Sodium phosphate, 0.2 M buffer solution, pH 7.4 (Alfa Aesar, Haverhill, Mass., USA), aqueous phosphate buffered saline (PBS) was prepared by diluting with Milli-Q water for a final concentration of 0.05 M. The pH of the solution was adjusted to 7.4±0.1 using 0.1 M hydrochloric acid (Fisher Scientific Waltham, Mass., USA) or 0.1 M aqueous sodium hydroxide (Fisher Scientific Waltham, Mass., USA).
10 μL of 0.010 mol/L DMSO test compound stock solutions were pipetted to separate 1.5 mL centrifuge tubes in triplicate. To these tubes, 190 μl of 0.05 M PBS was added. Each tube was gently vortexed for 5 sec. The tubes were shaken for a minimum of 24 h at approximately 25° C. After shaking, the solutions were transferred to 0.5 mL centrifuge filter tubes (MilliporeSigma, Burlington, Mass., USA) and centrifuged at 10,000 rpm for 5 min. After centrifugation, supernatants were collected and used for compound concentration analysis.
Compound concentrations in each solution were determined using high pressure liquid chromatography (HPLC) with ultraviolet (UV) detection and comparison with external standards. For HPLC, a Waters Acquity CSH Phenyl-Hexyl column (2.1 mm×50 mm, 1.7 μm) was used together with a generic gradient method on a Waters H-class system equipped with a diode array detector: Solvent A=0.1% formic acid in water, Solvent B=0.1% formic acid in acetonitrile (MilliporeSigma, Burlington, Mass., USA), flow=0.65 mL/min, (t=0 min: 95% A-5% B, t=4.75 min: 0% A-100% B, t=4.85 min: 0% A-100% B, t=4.86 min: 95% A-5% B, t=5 min: 95% A-5% B). UV quantifications were performed at 270 nm. Solution concentrations were calculated using Microsoft Excel.

SMILES | solubility kinetic [µM]
COc1ccc(N2CCCN(Cc3ccnc4c3ccn4CC(=O)N(C)C)C2=O)cc1OCCC[C@H]1C[C@@H]1C (racemic) [CU0752] | 75 (≈ 40 µg/mL)
CCCCCOc1cc(N2CCCN(Cc3ccc(CNC(=O)c4ccnnc4)cc3OC)C2=O)ccc1OC [CU0503] | 62 (≈ 34 µg/mL)
CCCCCOc1cc(N2CCCN(Cc3ccc(CNC(=O)c4cccnn4)cc3OC)C2=O)ccc1OC [CU0505] | 60 (≈ 32.9 µg/mL)
COc1ccc(N2CCCN(Cc3ccnc4c3c(Cl)cn4CC(=O)N3CCNC(=O)C3)C2=O)cc1OCCCC1CC1 [CU0522] | < 10
CCCCCOc1cc(N2CCCN(Cc3ccc(CNC(=O)c4cnnn4C)cc3OC)C2=O)ccc1OC [CU0544] | 50 (≈ 27.5 µg/mL)
COc1cc(CNC(C)=O)ccc1CN1CCCN(c2ccc(OC)c(OCCCC3CCC3)c2)C1=O [CU0546] | < 10
CCCCCOc1cc(N2CCCN(Cc3ccnc4c3c(Cl)cn4CCN3CCS(=O)(=O)CC3)C2=O)ccc1OC [CU0551] | 12 (≈ 7.42 µg/mL)
CCCCCOc1cc(N2CCCN(Cc3ccnc4c3c(Cl)cn4CC(=O)NC(C)C)C2=O)ccc1OC [CU0553] | 12 (≈ 6.67 µg/mL)
CCCCCOc1cc(N2CCCN(Cc3ccnc4c3c(Cl)cn4Cc3nnn(C)n3)C2=O)ccc1OC [CU0556] | < 10
CCCCCOc1cc(N2CCCN(Cc3ccnc4c3c(Cl)cn4CCOCCNC(C)=O)C2=O)ccc1OC [CU0559] | < 10
CCCCCOc1cc(N2CCCN(Cc3ccnc4c3c(Cl)cn4CCOC(=O)N3CCS(=O)(=O)CC3)C2=O)ccc1OC [CU0563] | 19 (≈ 12.6 µg/mL)
CCCCCOc1cc(N2CCCN(Cc3ccnc4c3c(Cl)cn4CCN3CCCC3)C2=O)ccc1OC [CU0564] | 249 (≈ 138 µg/mL)
CCCCCOc1cc(N2CCCN(Cc3ccnc4c3c(Cl)cn4Cc3nnnn3C)C2=O)ccc1OC [CU0570] | < 10
CCCCCOc1cc(N2CCCN(Cc3ccnc4c3c(Cl)cn4CCN3CCCS3(=O)=O)C2=O)ccc1OC [CU0577] | 13 (≈ 7.85 µg/mL)
COc1ccc(N2CCCN(Cc3ccnc4c3c(Cl)cn4CC(=O)N(C)C)C2=O)cc1OCCCC(C)(C)C [CU0595] | < 10
CCCCCOc1cc(N2CCCN(Cc3ccc(C4CNC(=O)O4)cc3OC)C2=O)ccc1OC (centres unmarked) [CU0611] | 170 (≈ 84.6 µg/mL)
CCCCCOc1cc(N2CCCN(Cc3ccc(Cc4cnccn4)cc3OC)C2=O)ccc1OC [CU0614] | 101 (≈ 51 µg/mL)
CCCCCOc1cc(N2CCCN(Cc3ccc(C4CN(C)C(=O)O4)cc3OC)C2=O)ccc1OC (centres unmarked) [CU0618] | 179 (≈ 91.6 µg/mL)
CCCCCOc1cc(N2CCCN(Cc3ccnc4c3c(Cl)cn4C(C)C(=O)N3CN(C(C)C)C3)C2=O)ccc1OC (centres unmarked) [CU0620] | 275 (≈ 168 µg/mL)

From US20230115176A1 (Ra Pharmaceuticals, Inc., priority 2019, published 2023)
